Patent US9028856B2, “Synergistic pesticide compositions” (priority 2008, dated 2015)

How the values were obtained:
[1] = tested on: Musca domestica, susceptible strain WHO(N); assay: Efficacy of formulations on surfaces (glazed/unglazed tiles), house flies, continuous exposure; assay type: in vivo; conditions: strain WHO(N) susceptible, acetone solutions on glazed tiles, mean of three replicates
Method: A flat fan nozzle (type SS 8003-E) in a spray cabin was moved automatically over a defined area where the solutions were sprayed very evenly onto the surfaces. The formulation was mixed with water to give a concentration which corresponded to the desired quantity of a.i./m^2. A defined quantity of this solution was sprayed onto the area (nominal 350 liter/ha=0.77 ml per surface).
All surfaces were provided with talcum-coated glass rings (diameter 9.5 cm, height 5.5 cm) one day later.
The test insects were anesthetized with CO2, 20 individuals were placed onto the treated surfaces and the glass ring was covered with wire gauze ring.
Knock down was determined after 15 and 30′, 1, 2, 4 and 6 hours, mortality after 1 day exposure.
Each test consisted of at least one replicate and any additional replicates are noted.
Test Insects: House flies (Musca domestica) of both sexes, susceptible strain WHO(N) and resistant strain Reichswald
Evaluation: Mortality was evaluated cumulatively at different times. […]
Test Insects: Culex quinquefasciatus (adults) (3 minutes exposure time according to USDA Petri Dish Method), Musca domestica (adults), susceptible and resistant strain, Blattella germanica (males), Cimex lectularius (adults) (all: continuous exposure time)
Application: The EC formulation (diluted with water 1:9) were applied as 0.85 ml solutions onto glazed tiles (15 cm×15 cm)
Evaluation: Knock down after 15, and 30 minutes, 1, 2, 3, 4, 6 and 24 hours (mortality)
Test Insects: Culex quinquefasciatus (adults, susceptible) (3 minutes exposure time according to USDA Petri Dish Method), Musca domestica (adults, susceptible and resistant), Blattella germanica (males, susceptible) (both: continuous exposure time)
Formulations: Insecticide with or without 10% Compound A (as EC), to be diluted with water (1 part formulation+9 parts water)
Evaluation: Knock down after 3, 9 (mosquitoes only), 15, and 30 minutes, 1, 2, 3, 4 and 24 hours (mortality) […]

[2] = tested on: Musca domestica, susceptible strain WHO(N); assay: Contact efficacy against houseflies on filter papers in glass dishes; assay type: in vivo; conditions: % a.i. conc. in acetone on filter papers, Table 97
Method: Male Musca domestica, susceptible strain WHO(N), were used.
A solution of the active ingredient in acetone was prepared. A concentration row was made. After evaporation of the acetone (30′), the dishes were closed by a glass lid and transferred into the test room. One day later twenty flies, anaesthetized with CO2, are counted into each dish. At regular intervals, knock down was recorded (cumulatively). Each test consisted of one replicate. […]

Aedes aegypti mosquito = assay: USDA Petri Dish Method, 3 min exposure to treated glazed tile; assay type: in vivo; conditions: Table 37, resmethrin/adjuvant in acetone, glazed tile, 3 min exposure
How it was run: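 USDA Petri Dish screen: groups of twenty female Aedes aegypti (4-6 days old) held 3 minutes on dried acetone-based treatments (with/without adjuvant), then transferred to untreated card. Replicated three or more times; knockdown followed over time, mortality recorded 24 hours post-exposure with sucrose-soaked cotton available.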

[3] = tested on: Culex quinquefasciatus mosquito; assay: USDA Petri Dish Method, 3 min exposure to treated glazed tile (twenty 4-6 day old females); assay type: in vivo; conditions: in vivo
Method: MATERIALS AND METHODS: Solutions of resmethrin at 1 and 0.5% AI were prepared with and without adjuvant in acetone. […] USDA Petri Dish Method was used as initial screening protocol. Twenty, 4-6 day old female Culex quinquefasciatus mosquitoes were exposed to each treatment for 3 minutes and then moved to a clean untreated white paper index card. Treatments were replicated a minimum of three times. Mosquito knockdown was evaluated at 3 minute intervals for the first 15 minutes and then at 5 minute intervals for the remainder of an hour. A small cotton ball soaked in sucrose solution was added on the screen top of the petri-dish as a drinking source after the 2 hour evaluation. Mortality was evaluated at 24 hours after exposure.
Treatments were allowed to dry overnight. USDA Petri Dish Method was used as initial screening protocol. Twenty, 4-6 day old female Culex mosquitoes were exposed to each treatment for 3 minutes and then moved to a clean untreated white paper index card. Treatments were replicated a minimum of three times. Mosquito knockdown was evaluated at various intervals through 3 hours after exposure. A small cotton ball soaked in sucrose solution was added on the screen top of the petri-dish as a drinking source. Mortality was evaluated at 24 hours after exposure.
Treatments were allowed to dry overnight. USDA Petri Dish Method was used as initial screening protocol. Twenty, 4-6 day old female Culex quinquefasciatus mosquitoes were exposed to each treatment for 3 minutes and then moved to a clean untreated white paper index card. Treatments were replicated a minimum of three times. Mosquito knockdown was evaluated at various intervals through 2 hours after exposure. A small cotton ball soaked in sucrose solution was then added on the screen top of the petri-dish as a drinking source. Mortality was evaluated at 24 hours after exposure.
Treatments were allowed to dry overnight. USDA Petri Dish Method was used as initial screening protocol. Twenty, 4-6 day old female Culex quinquefasciatus mosquitoes were exposed to each treatment for 3 minutes and then moved to a clean untreated white paper index card. Treatments were replicated a minimum of three times. Mosquito knockdown was evaluated at various hourly intervals. A small cotton ball soaked in sucrose solution was added on the screen top of the petri-dish as a drinking source after 2 hours. Mortality was evaluated at 24 hours after exposure.

[4] = assay type: physicochemical; conditions: classified from Log P
Text: As used herein, a “partition coefficient” is defined as the ratio of concentrations of an un-ionized compound between solutions of water and octanol. To measure the partition coefficient of ionizable solutes, the pH of the aqueous phase is adjusted such that the predominant form of the compound is un-ionized. The logarithm of the ratio of the concentrations of the un-ionized solute in the solvents is referred to herein as log P or log K ow.
As noted herein, the octanol-water partition coefficient may be used to identify the cuticular penetration of a particular active ingredient. One factor in the relative speed through which any insecticide acts is the insecticide's ability to cross the insect cuticle. A determining factor for cuticle penetration is Log K ow, also known as Log P. Log K ow (Log P) is the octanol-water partition coefficient for a neutral molecule. Log P is used hereinfurther, but, as noted above, the term is synonymous with Log K ow. As previously noted, the cuticular penetration of any particular active ingredient as against a plant cuticle is not indicative of that same active ingredient's ability to penetrate an insect cuticle.
The cuticular penetration of a compound is classified as “INTERMEDIATE” when the Log P value is between about 2.0 and about 4.0.

| Structure (SMILES) | % knock down after ([2]; 15′) [%] | % knock down after ([2]; 30′) [%] | % knock down after ([2]; 1 h) [%] | % knock down after ([2]; 1.5 h) [%] | % knock down after ([2]; 2 h) [%] | % knock down after ([2]; 3 h) [%] | % knock down after ([2]; 4 h) [%] | % knock down after ([2]; 6 h) [%] | % knock down after ([2]; 1 d) [%] | also measured |
| --- | --- | --- | --- | --- | --- | --- | --- | --- | --- | --- |
| CC1(C)[C@H](C(=O)O[C@H](C#N)c2cccc(Oc3ccccc3)c2)[C@@H]1C=C(Br)Br [0.001% DTM] |  |  |  |  |  |  |  |  |  | % Mortality after ([1]; 15′): 2%; % Mortality after ([1]; 30′): 18%; % Mortality after ([1]; 1 h): 58%; % Mortality after ([1]; 2 h): 80%; % Mortality after ([1]; 3 h): 88%; % Mortality after ([1]; 24 h): 92% |
| CC1(C)C(C=C(Br)Br)C1C(=O)OC(C#N)c1cccc(Oc2ccccc2)c1 (stereo not shown) [0.0016% DTM] | 0 | 5 | 70 | 90 | 100 | 100 | 100 | 100 | 95 |  |
| CC1(C)[C@H](C(=O)O[C@H](C#N)c2cccc(Oc3ccccc3)c2)[C@@H]1C=C(Br)Br [0.00032% DTM] | 0 | 0 | 5 | 30 | 50 | 65 | 65 | 60 | 95 |  |
| CC1(C)[C@H](C(=O)O[C@H](C#N)c2cccc(Oc3ccccc3)c2)[C@@H]1C=C(Br)Br [0.000064% DTM] | 0 | 0 | 0 | 0 | 0 | 0 | 0 | 15 | 80 |  |
| CC1(C)[C@H](C(=O)O[C@H](C#N)c2cccc(Oc3ccccc3)c2)[C@@H]1C=C(Br)Br [0.0000128% DTM] | 0 | 0 | 0 | 0 | 0 | 0 | 0 | 15 | 70 |  |
| CC(C)=CC1C(C(=O)OCc2coc(Cc3ccccc3)c2)C1(C)C (stereo not shown) [Resmethrin (1%)] |  |  |  |  |  |  |  |  |  | Average % Knockdown & Mortality after 3 min (Aedes aegypti mosquito; 3 min): 66%; Average % Knockdown & Mortality after 15 min (Aedes aegypti mosquito; 15 min): 100%; Average % Knockdown & Mortality after 30 min (Aedes aegypti mosquito; 30 min): 100%; Average % Knockdown & Mortality after 60 min (Aedes aegypti mosquito; 60 min): 100%; Average % Knockdown & Mortality after 24 hr (Aedes aegypti mosquito; 24 hr): 100%; Average % Knockdown & Mortality after 3 min [3]: 0%; Average % Knockdown & Mortality after 15 min [3]: 2%; Average % Knockdown & Mortality after 30 min [3]: 13%; Average % Knockdown & Mortality after 60 min [3]: 11%; Average % Knockdown & Mortality after 2 hr [3]: 2%; Average % Knockdown & Mortality after 24 hr [3]: 4% |
| CCOP(=S)(OCC)Oc1nc(Cl)c(Cl)cc1Cl [chlorpyrifos] |  |  |  |  |  |  |  |  |  | Likelihood of Direct Insect Cuticular Penetration [4]: Fast (classified as “FAST” when it has a Log P value of about >4.0) |
| CCOP(=S)(OCC)Oc1cc(C)nc(C(C)C)n1 [diazinon] |  |  |  |  |  |  |  |  |  | Likelihood of Direct Insect Cuticular Penetration [4]: Intermediate (classified as “INTERMEDIATE” when the Log P value is between about 2.0 and about 4.0) |
